Results on four compounds are retold here after patent US20060173064A1, “(-)-1-(3,4-Dichlorophenyl)-3-azabi cyclo[3.1.0]hexane, compositions thereof, and uses for treating alcohol-related disorders” (priority 2001, published 2006).

Data set [1] addresses norepinephrine transporter (norepinephrine uptake site), rat forebrain membranes (Rattus norvegicus, UniProt Q63380). Particulars: Table 2; hydrochloride. How it is done: The norepinephrine transporter binding assay was performed according to the methods described in Raisman et al., 1982, Eur. J. Pharmacol. 78:345-351 and Langer et al., 1981, Eur. J. Pharmacol. 72:423. […] Reactions were carried out in 50 mM TRIS-HCI (pH 7.4), containing 300 mM NaCl and 50 mM KCl and at 0° C. to 4° C. for four hours. The reaction was terminated by rapid vacuum filtration onto glass fiber filters. Radioactivity trapped in the filters was determined and compared to control values in order to ascertain the interactions of the test compound with the norepinephrine uptake site.

Data set [2] concerns the target T1, serotonin transporter (serotonin uptake site), human platelet membranes (Homo sapiens, UniProt P31645).
T1 construct: The receptor source was human platelet membranes; from tissue; host or cells: human platelets (membranes)
Nature of the data set: Serotonin transporter binding assay ([3H]citalopram). Particulars: summary of Table 3; hydrochloride. As to the method: Reactions were carried out in 50 mM TRIS-HCl (pH 7.4), containing 120 mM NaCl and 5 mM KCl and at 25° C. for one hour. The reaction was terminated by rapid vacuum filtration onto glass fiber filters. Radioactivity trapped in the filters was determined and compared to control values in order to ascertain the interactions of the test compound with the serotonin uptake site.

In data set [3] the target is hSERT (recombinant human serotonin transporter) (Homo sapiens, UniProt P31645). Nature of the data set: Inhibition of [3H]5-HT uptake in HEK-hSERT cells. To be noted: (−)-enantiomer versus the racemate.
Data set [4] has as its target T2, dopamine transporter (dopamine uptake site), guinea pig striatal membranes (Cavia porcellus, UniProt H0WCX4).
T2 construct: The receptor source was guinea pig striatal membranes; from tissue; host or cells: guinea pig striatum (membranes)
Nature of the data set: Dopamine transporter binding assay ([3H]WIN 35,428). To be noted: summary of Table 1. As to the method: The dopamine uptake transporter binding assay was performed according to the methods described in Madras et al., 1989, Mol. Pharmacol. 36(4):518-524 and Javitch et al., 1984, Mol. Pharmacol. 26(1):35-44. […] Reactions were carried out in 50 mM TRIS-HCI (pH 7.4), containing 120 mM NaCl and at 0° C. to 4° C. for two hours. The reaction was terminated by rapid vacuum filtration onto glass fiber filters. Radioactivity trapped in the filters was determined and compared to control values in order to ascertain the interactions of the test compound with the dopamine uptake site.

In a further data set the test system is male mHEP rat. Nature of the data set: Volitional consumption of ethanol in the HEP (high ethanol preferring) rat. It is filed as in vivo. To be noted: for Ethanol Consumption, Mean ± s.e.m., pre-: three-day pre-treatment period (baseline); for Ethanol Consumption, Mean ± s.e.m., pre- / Ethanol Consumption, Mean ± s.e.m., during / Ethanol Consumption, Mean ± s.e.m., post-: male mHEP rat; for Ethanol Consumption, Mean ± s.e.m., during: during three days of injections; for Ethanol Consumption, Mean ± s.e.m., post-: three-day post-treatment period. How it is done: (§1) The study described here was performed using procedures modified from previous reports (Myers R D et al., Genetics of alcoholism: Rapid development of a new high ethanol preferring (HEP) strain of female and male rats, Alcohol 16:343-357, 1998; […] et al., Effects of NMDA glutamate receptor antagonist drugs on the consumption of ethanol by a genetic drinking rat, Brain Res. Bull 64:279-284, 2004). Briefly, subject male rats were taken from the selectively bred Myers' high ethanol preferring (MHEP) line (Myers et al., Alcohol 16:343-357, 1998), which drink copious amounts of ethanol, even in the presence of palatable alternatives. These rats were subjected to an ethanol preference selection protocol, 3% to 30% during a 10-day “step up” procedure that ensures the maximum amount of drinking at each rat's desired ethanol concentration, with the proportion of ethanol to total fluid consumption of approximately 50%. After the rats were selected and drinking a fixed concentration of ethanol, they were subjected to a three-day baseline ethanol consumption period. This was followed by a three-day period of test drug administration (IP), then a three-day post-treatment period. During this entire study, the following parameters were measured on a daily basis: volume of water consumed; volume of ethanol solution consumed; weight of food consumed; and rat body weight. […] Doses were calculated as the free base form of each drug. Once drinking stabilized to baseline levels post-treatment, a different dose of drug was administered. […] The order of drug doses or vehicle (0.9% saline) was set up in a counter-balanced design. The data were averaged for each period for each rat then grouped and analyzed by one-way repeated measures ANOVA and Tukey's post-hoc analysis.

Data set [5] in a line: Body weight of the mHEP rat in the ethanol study. To be noted: for Bodyweight, Mean ± s.e.m., pre-: three-day pre-treatment period (baseline); for Bodyweight, Mean ± s.e.m., pre- / Bodyweight, Mean ± s.e.m., during / Bodyweight, Mean ± s.e.m., post-: male mHEP rat; for Bodyweight, Mean ± s.e.m., during: during three days of injections; for Bodyweight, Mean ± s.e.m., post-: three-day post-treatment period. It is filed as in vivo. As to the method:
as §1

Marks after values point to notes of the source that are not given here.

T2 sequence (H0WCX4 1-619): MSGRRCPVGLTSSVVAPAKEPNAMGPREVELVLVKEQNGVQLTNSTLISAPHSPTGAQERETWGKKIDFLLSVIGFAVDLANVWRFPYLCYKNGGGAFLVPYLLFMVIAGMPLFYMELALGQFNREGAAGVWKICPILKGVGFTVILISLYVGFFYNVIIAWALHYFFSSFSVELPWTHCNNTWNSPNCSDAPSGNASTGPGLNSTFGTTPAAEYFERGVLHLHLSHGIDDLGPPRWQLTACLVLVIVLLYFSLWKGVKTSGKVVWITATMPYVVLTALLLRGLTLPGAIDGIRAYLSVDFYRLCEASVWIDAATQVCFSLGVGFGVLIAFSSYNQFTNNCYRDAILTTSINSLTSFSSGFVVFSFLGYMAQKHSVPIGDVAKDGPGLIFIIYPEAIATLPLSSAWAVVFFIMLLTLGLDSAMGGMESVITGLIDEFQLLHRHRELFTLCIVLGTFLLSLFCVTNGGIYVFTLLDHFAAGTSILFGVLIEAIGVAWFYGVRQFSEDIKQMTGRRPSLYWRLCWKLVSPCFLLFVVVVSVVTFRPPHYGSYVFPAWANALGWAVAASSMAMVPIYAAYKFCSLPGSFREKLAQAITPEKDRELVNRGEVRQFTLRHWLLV
Sequence of norepinephrine transporter (norepinephrine uptake site), rat forebrain membranes (Q63380 1-617): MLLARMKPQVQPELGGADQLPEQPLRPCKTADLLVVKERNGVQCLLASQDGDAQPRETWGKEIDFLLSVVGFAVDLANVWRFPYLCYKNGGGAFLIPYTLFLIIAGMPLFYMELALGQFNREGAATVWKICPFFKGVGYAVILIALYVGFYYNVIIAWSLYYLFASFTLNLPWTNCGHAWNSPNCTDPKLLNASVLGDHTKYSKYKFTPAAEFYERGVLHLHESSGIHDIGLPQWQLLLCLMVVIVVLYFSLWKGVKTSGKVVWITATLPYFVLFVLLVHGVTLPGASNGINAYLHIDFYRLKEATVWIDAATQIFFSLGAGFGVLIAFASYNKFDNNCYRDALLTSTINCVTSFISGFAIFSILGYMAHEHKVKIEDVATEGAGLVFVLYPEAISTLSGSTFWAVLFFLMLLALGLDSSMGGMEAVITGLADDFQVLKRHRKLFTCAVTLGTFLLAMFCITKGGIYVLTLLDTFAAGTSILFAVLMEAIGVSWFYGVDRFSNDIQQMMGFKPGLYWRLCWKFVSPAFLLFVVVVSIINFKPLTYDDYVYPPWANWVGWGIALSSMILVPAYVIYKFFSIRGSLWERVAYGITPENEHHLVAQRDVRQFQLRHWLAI
T1 sequence (P31645 whole entry): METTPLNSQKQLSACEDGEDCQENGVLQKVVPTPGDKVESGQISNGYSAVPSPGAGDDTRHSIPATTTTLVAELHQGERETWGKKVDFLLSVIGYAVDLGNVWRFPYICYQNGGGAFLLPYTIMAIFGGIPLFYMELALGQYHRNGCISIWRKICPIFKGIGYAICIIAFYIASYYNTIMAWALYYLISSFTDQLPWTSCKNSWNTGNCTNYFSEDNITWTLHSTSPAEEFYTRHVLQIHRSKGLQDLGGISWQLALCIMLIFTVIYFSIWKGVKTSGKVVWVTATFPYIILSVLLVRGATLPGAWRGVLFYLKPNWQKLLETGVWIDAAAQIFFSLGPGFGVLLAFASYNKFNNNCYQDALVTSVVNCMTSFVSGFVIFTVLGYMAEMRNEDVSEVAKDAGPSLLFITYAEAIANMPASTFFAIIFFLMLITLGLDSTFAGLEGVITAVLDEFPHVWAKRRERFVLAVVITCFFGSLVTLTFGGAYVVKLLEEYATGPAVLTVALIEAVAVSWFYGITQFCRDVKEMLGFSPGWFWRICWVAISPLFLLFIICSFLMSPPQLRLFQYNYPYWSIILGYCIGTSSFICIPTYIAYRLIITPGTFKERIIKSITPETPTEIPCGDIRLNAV
Sequence of hSERT (recombinant human serotonin transporter) (P31645 whole entry): as above

As for `Cl.Clc1ccc([C@@]23CNC[C@@H]2C3)cc1Cl` (single isomer, unassigned) [(−)-1-(3,4-dichlorophenyl)-3-azabicyclo[3.1.0]hexane HCl] [(−)-1-(3,4-dichlorophenyl)-3-azabicyclo[3.1.0]hexane hydrochloride], the “affinity for the norepinephrine uptake site (in words)” value in data set [1] is on record as “no measurable affinity”. For the same compound, the “affinity for the serotonin uptake site (in words)” value in data set [2] is given as “no measurable affinity”. In addition, the “difference in affinity, uptake at the serotonin transporter” value in data set [3] amounted to 9.6 fold.
Regarding `Cl.Clc1ccc([C@@]23CNC[C@@H]2C3)cc1Cl` (single isomer, unassigned) [(+)-1-(3,4-dichlorophenyl)-3-azabicyclo[3.1.0]hexane HCl] [(+)-1-(3,4-dichlorophenyl)-3-azabicyclo[3.1.0]hexane hydrochloride, reference compound], the “affinity for the norepinephrine uptake site (in words)” value in data set [1] is listed as “has affinity”. Also, the “affinity for the serotonin uptake site (in words)” value in data set [2] is listed as “has affinity”.
For `Cl.Clc1ccc([C@@]23CNC[C@@H]2C3)cc1Cl` (single isomer, unassigned) [(+)-1-(3,4-dichlorophenyl)-3-azabicyclo[3.1.0]hexane hydrochloride, reference compound], the “affinity for the dopamine uptake site (in words)” value in data set [4] was “have affinity”.
On to `Cl.Clc1ccc([C@@]23CNC[C@@H]2C3)cc1Cl` (single isomer, unassigned) [(−)-1-(3,4-dichlorophenyl)-3-azabicyclo[3.1.0]hexane hydrochloride], for which the “affinity for the dopamine uptake site (in words)” value in data set [4] is recorded as “have affinity”. Further, the “Ethanol Consumption, Mean ± s.e.m., pre-” value worked out at 5.39 ± 0.89 g ethanol/kg/day in the data set on male mHEP rat (2.5 mg/kg b.i.d. IP group), 6.00 ± 0.59 g ethanol/kg/day in the data set on male mHEP rat (5.0 mg/kg b.i.d. IP group), 6.77 ± 0.51 g ethanol/kg/day with male mHEP rat (10.0 mg/kg b.i.d. IP group) and 5.26 ± 0.49 g ethanol/kg/day in the data set on male mHEP rat (20.0 mg/kg b.i.d. IP group). The “Ethanol Consumption, Mean ± s.e.m., during” value with male mHEP rat (2.5 mg/kg b.i.d. IP) amounted to 4.32 ± 0.69 g ethanol/kg/day; in the data set on male mHEP rat (5.0 mg/kg b.i.d. IP), 4.33 ± 0.62 g ethanol/kg/day; in the data set on male mHEP rat (10.0 mg/kg b.i.d. IP), 3.50 ± 0.45 g ethanol/kg/day; with male mHEP rat (20.0 mg/kg b.i.d. IP) it was 1.80 ± 0.28 g ethanol/kg/day. The “Ethanol Consumption, Mean ± s.e.m., post-” value in the data set on male mHEP rat (2.5 mg/kg b.i.d. IP) is 5.79 ± 0.86^a g ethanol/kg/day; with male mHEP rat (5.0 mg/kg b.i.d. IP) it was 5.66 ± 0.64 g ethanol/kg/day; in the data set on male mHEP rat (10.0 mg/kg b.i.d. IP), 4.15 ± 0.61 g ethanol/kg/day; in the data set on male mHEP rat (20.0 mg/kg b.i.d. IP) it was 2.89 ± 0.45 g ethanol/kg/day. In addition, the “effect on ethanol consumption during the post-treatment period (in words)” value with male mHEP rat (10 mg/kg b.i.d., post-treatment period) is reported as “significant carry over effect”. The “decrease in the proportion of alcohol consumed (volume of ethanol / total volume of ethanol solution and water)” value with male mHEP rat (20 mg/kg b.i.d., after treatment) was 41%; with male mHEP rat (20 mg/kg b.i.d., during treatment), 62.3%. Moreover, the “ethanol consumption depressed compared to the pre-treatment period” value in the data set on male mHEP rat (20 mg/kg b.i.d., post-treatment period) worked out at 55.1%. Further, the “decrease in ethanol consumption compared to the pre-treatment period” value in the data set on male mHEP rat (20 mg/kg b.i.d., treatment period) amounted to 65.8%. Besides, the “amount of ethanol consumed (in words)” value in the data set on male mHEP rat (across doses, mHEP rat) was “strong dose-dependent decrease in consumption”. The “volitional consumption of ethanol (in words)” value in the data set with male mHEP rat (dose range of 5.0 to 20 mg/kg b.i.d.) was “significantly reduced”. In addition, the “proportion of ethanol consumed (in words)” value in the data set on male mHEP rat (mHEP rat) is on record as “strong decrease”. Besides, the “Bodyweight, Mean ± s.e.m., pre-” value in data set [5] (2.5 mg/kg b.i.d. IP group) came out at 0.369 ± 0.019 kg; in data set [5] (5.0 mg/kg b.i.d. IP group) it was 0.392 ± 0.009 kg; in data set [5] (10.0 mg/kg b.i.d. IP group), 0.381 ± 0.028 kg; in data set [5] (20.0 mg/kg b.i.d. IP group), 0.421 ± 0.015 kg. Further, the “Bodyweight, Mean ± s.e.m., during” value was 0.372 ± 0.019 kg in data set [5] (2.5 mg/kg b.i.d. IP), 0.394 ± 0.009 kg in data set [5] (5.0 mg/kg b.i.d. IP), 0.381 ± 0.028 kg in data set [5] (10.0 mg/kg b.i.d. IP) and 0.423 ± 0.015 kg in data set [5] (20.0 mg/kg b.i.d. IP). The “Bodyweight, Mean ± s.e.m., post-” value is recorded as 0.373 ± 0.019 kg in data set [5] (2.5 mg/kg b.i.d. IP), 0.394 ± 0.007 kg in data set [5] (5.0 mg/kg b.i.d. IP), 0.382 ± 0.028 kg in data set [5] (10.0 mg/kg b.i.d. IP) and 0.418 ± 0.015^a kg in data set [5] (20.0 mg/kg b.i.d. IP). Also, in data set [5] (treated rats, as expected for rats of this age), the “body weight (in words)” value is “small increases in body weight”.
